Measured values from patent US20230150970A1, “AMINOPYRIMIDINE DERIVATIVES AND THEIR USE AS ARYL HYDROCARBON RECEPTOR MODULATORS” (DONG-A ST CO., LTD., priority 2020, published 2023).
Read-outs that look alike come from different tables or passages of the source. Blank lines part the entries; values can stand above or below the molecule they belong to.

Tests used:
AhR [1] = target: T1, AhR (Homo sapiens, UniProt P35869); experiment: In Vitro Assay 1: XRE-luciferase reporter assay, antagonism in human cell line (HepG2)
T1 sequence (P35869 11-848): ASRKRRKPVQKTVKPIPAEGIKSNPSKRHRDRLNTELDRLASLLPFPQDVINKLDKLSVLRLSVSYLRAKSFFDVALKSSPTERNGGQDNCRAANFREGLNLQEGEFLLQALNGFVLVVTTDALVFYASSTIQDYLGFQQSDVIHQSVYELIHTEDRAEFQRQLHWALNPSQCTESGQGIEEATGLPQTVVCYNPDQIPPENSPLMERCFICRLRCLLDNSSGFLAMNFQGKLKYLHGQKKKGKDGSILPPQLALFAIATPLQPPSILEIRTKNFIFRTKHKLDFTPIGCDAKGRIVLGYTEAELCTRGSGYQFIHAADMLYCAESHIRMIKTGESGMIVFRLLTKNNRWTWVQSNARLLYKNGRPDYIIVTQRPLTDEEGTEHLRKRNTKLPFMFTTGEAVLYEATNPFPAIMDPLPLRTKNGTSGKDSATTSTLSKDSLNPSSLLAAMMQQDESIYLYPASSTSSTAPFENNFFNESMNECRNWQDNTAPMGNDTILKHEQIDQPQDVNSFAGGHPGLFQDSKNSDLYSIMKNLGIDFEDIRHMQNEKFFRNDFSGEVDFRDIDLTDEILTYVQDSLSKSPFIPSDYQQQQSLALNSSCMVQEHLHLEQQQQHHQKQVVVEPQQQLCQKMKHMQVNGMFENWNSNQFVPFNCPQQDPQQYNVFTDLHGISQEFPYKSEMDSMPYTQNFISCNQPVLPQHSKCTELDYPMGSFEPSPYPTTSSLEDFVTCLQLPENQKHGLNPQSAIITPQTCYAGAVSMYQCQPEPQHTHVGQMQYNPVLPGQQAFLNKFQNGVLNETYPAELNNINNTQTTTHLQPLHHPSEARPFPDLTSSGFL

AhR [2] = target: T1, AhR; experiment: In Vitro Assay 3: XRE-luciferase reporter assay, agonism in human cell line (HepG2); assay type: cell-based; design: endogenous in cells; host or cells: HepG2; details: HepG2, tryptophan free medium, 6 hours, no agonist, read-out: Assay 3: AhR-Luc Human Agonism (EC50)
Protocol: In Vitro Assay 3: Agonism in Human Cell Line
HepG2 (human hepatoma cell line) cells co-transfected with XRE-Luc and Nano-Luc plasmids were plated in tryptophan free medium containing 1% of dialyzed fetal bovine serum and incubated overnight at 37° C. in a CO2 incubator. After 24 hours, cells were treated for 6 hours with test compounds or not. […] As a positive control, cells were incubated with TCDD.

[3] = Assay 1: AhR-Luc Human Antagonism (IC50, nM), values marked *: kynurenine 50 μM, 6 hours
[4] = Assay 1: AhR-Luc Human Antagonism (IC50, nM), unmarked values: kynurenine 200 μM, 6 hours
[5] = read-out: Assay 1: AhR-Luc Human Antagonism (IC50), values marked *: kynurenine 50 μM, 6 hours

IC50 (AhR [1]; [3]): > 1000 nM | EC50 (AhR [2]; number of the cell): 0.758 µM
Molecule: C[C@@H]1CN(c2cc(-c3ccc(Cl)cc3)nc(-c3cccnc3)n2)C[C@H](C)O1 [Example 70, cis-4-(6-(4-chlorophenyl)-2-(pyridin-3-yl)pyrimidin-4-yl)-2,6-dimethylmorpholine]

IC50 (AhR [1]; [3]): 10 to 100 nM | EC50 (AhR [2]; number of the cell): 1.58 µM
Molecule: Cc1cccc(N2CCN(c3cc(-c4ccc(Cl)cc4)nc(-c4cccnc4)n3)CC2)c1C [Example 118, 4-(4-chlorophenyl)-6-(4-(2,3-dimethylphenyl)piperazin-1-yl)-2-(pyridin-3-yl)pyrimidine]

IC50 (AhR [1]; [3]): 10 to 100 nM | EC50 (AhR [2]; number of the cell): 0.0559 µM
Molecule: C[C@@H](O)[C@@H](C)Nc1cc(-c2ccc(Cl)cc2)nc(-c2cccnc2)n1 [Example 144, (2R,3R)-3-((6-(4-chlorophenyl)-2-(pyridin-3-yl)pyrimidin-4-yl)amino)butan-2-ol]

IC50 (AhR [1]; [3]): 10 to 100 nM | EC50 (AhR [2]; class in brackets of the cell): > 10 µM | EC50 (AhR [2]; number of the cell): > 30 µM
Molecule: COCCN1CCC(CNc2cc(-c3ccc(Cl)cc3)nc(-c3cccnc3)n2)CC1 [Example 170, 6-(4-chlorophenyl)-N-((1-(2-methoxyethyl)piperidin-4-yl)methyl)-2-(pyridin-3-yl)pyrimidin-4-amine]

IC50 (AhR [1]; [3]): < 10 nM | EC50 (AhR [2]; class in brackets of the cell): > 10 µM | EC50 (AhR [2]; number of the cell): > 30 µM
Molecule: CC(CO)N1CCN(c2cc(-c3ccc(Cl)cc3)nc(-c3cccnc3)n2)CC1 (centres unmarked) [Example 224, 2-(4-(6-(4-chlorophenyl)-2-(pyridin-3-yl)pyrimidin-4-yl)piperazin-1-yl)propan-1-ol]

IC50 (AhR [1]; [3]): < 10 nM | EC50 (AhR [2]; class in brackets of the cell): > 10 µM | EC50 (AhR [2]; number of the cell): > 30 µM
Molecule: COCC(=O)NC1CCN(c2cc(-c3ccc(Cl)cc3)nc(-c3cccnc3)n2)CC1 [Example 225, N-(1-(6-(4-chlorophenyl)-2-(pyridin-3-yl)pyrimidin-4-yl)piperidin-4-yl)-2-methoxyacetamide]

IC50 (AhR [1]; [4]): < 10 nM | EC50 (AhR [2]; class in brackets of the cell): > 10 µM | EC50 (AhR [2]; number of the cell): > 30 µM
Molecule: OCC1CCN(c2cc(-c3ccc(Cl)c(F)c3)nc(-c3cccnc3)n2)CC1 [Example 246, (1-(6-(4-chloro-3-fluorophenyl)-2-(pyridin-3-yl)pyrimidin-4-yl)piperidin-4-yl)methanol]

IC50 (AhR [1]; [4]): 10 to 100 nM
Molecule: Cn1cc(-c2nc(-c3ccc(Cl)cc3)cc(N3CCC(CO)(S(C)(=O)=O)CC3)n2)cn1 [Example 356, (1-(6-(4-chlorophenyl)-2-(1-methyl-1H-pyrazol-4-yl)pyrimidin-4-yl)-4-(methylsulfonyl)piperidin-4-yl)methanol]

IC50 (AhR [1]; [4]): < 10 nM
Molecule: Cn1cc(-c2nc(-c3ccc(C(F)(F)F)cc3)cc(N3CCC(CO)(S(C)(=O)=O)CC3)n2)cn1 [Example 357, (1-(2-(1-methyl-1H-pyrazol-4-yl)-6-(4-(trifluoromethyl)phenyl)pyrimidin-4-yl)-4-(methylsulfonyl)piperidin-4-yl)methanol]

IC50 (AhR [1]; [4]): 100 to 1000 nM
Molecule: CN(C)C1CN(c2cc(-c3ccc(Cl)cc3)nc(-c3cccnc3)n2)CCC1CO (centres unmarked) [Example 358, (1-(6-(4-chlorophenyl)-2-(pyridin-3-yl)pyrimidin-4-yl)-3-(dimethylamino)piperidin-4-yl)methanol]

IC50 (AhR [1]; [4]): 10 to 100 nM
Molecule: CC1CN(S(=O)(=O)CCO)CCN1c1cc(-c2ccc(Cl)cc2)nc(-c2cccnc2)n1 (centres unmarked) [Example 359, 2-((4-(6-(4-chlorophenyl)-2-(pyridin-3-yl)pyrimidin-4-yl)-3-methylpiperazin-1-yl)sulfonyl)ethan-1-ol]

IC50 (AhR [1]; [4]): > 1000 nM
Molecule: OCCNC1CCN(c2cc(-c3ccc(Cl)cc3)nc(-c3cccnc3)n2)CC1 [Example 360, 2-((1-(6-(4-chlorophenyl)-2-(pyridin-3-yl)pyrimidin-4-yl)piperidin-4-yl)amino)ethanol]

IC50 (AhR [1]; [4]): < 10 nM
Molecule: O=S(=O)(CCCO)N1CCN(c2cc(-c3ccc(Cl)cc3)nc(-c3cccnc3)n2)CC1 [Example 362, 3-((4-(6-(4-chlorophenyl)-2-(pyridin-3-yl)pyrimidin-4-yl)piperazin-1-yl)sulfonyl)propan-1-ol]

IC50 (AhR [1]; [4]): < 10 nM
Molecule: O=C(CC(O)CO)N1CCN(c2cc(-c3ccc(Cl)cc3)nc(-c3cccnc3)n2)CC1 (centres unmarked) [Example 363, 1-(4-(6-(4-chlorophenyl)-2-(pyridin-3-yl)pyrimidin-4-yl)piperazin-1-yl)-3,4-dihydroxybutan-1-one]

IC50 (AhR [1]; [4]): < 10 nM
Molecule: CC(O)C(O)C(=O)N1CCN(c2cc(-c3ccc(Cl)cc3)nc(-c3cccnc3)n2)CC1 (centres unmarked) [Example 364, 1-(4-(6-(4-chlorophenyl)-2-(pyridin-3-yl)pyrimidin-4-yl)piperazin-1-yl)-2,3-dihydroxybutan-1-one]

IC50 (AhR [1]; [4]): 100 to 1000 nM
Molecule: CC1CN(c2cc(-c3ccc(Cl)cc3)nc(-c3cccnc3)n2)CC(=O)N1 (centres unmarked) [Example 365, 4-(6-(4-chlorophenyl)-2-(pyridin-3-yl)pyrimidin-4-yl)-6-methylpiperazin-2-one]

IC50 (AhR [1]; [4]): > 1000 nM
Molecule: O=C1COCCN1c1ccc(-c2cc(N3CC[C@H](O)C3)nc(-c3cccnc3)n2)cc1 [Example 367, (S)-4-(4-(6-(3-hydroxypyrrolidin-1-yl)-2-(pyridin-3-yl)pyrimidin-4-yl)phenyl)morpholin-3-one]

IC50 (AhR [1]; [4]): 10 to 100 nM
Molecule: O=S(=O)(CCO)N1CCN(c2cc(-c3ccc(Cl)cc3)nc(-c3cnsc3)n2)CC1 [Example 368, 2-((4-(6-(4-chlorophenyl)-2-(isothiazol-4-yl)pyrimidin-4-yl)piperazin-1-yl)sulfonyl)ethanol]

IC50 (AhR [1]; [4]): 10 to 100 nM
Molecule: O=S(=O)(CC(O)CO)N1CCN(c2cc(-c3ccc(Cl)cc3)nc(-c3cccnc3)n2)CC1 (centres unmarked) [Example 369, 3-((4-(6-(4-chlorophenyl)-2-(pyridin-3-yl)pyrimidin-4-yl)piperazin-1-yl)sulfonyl)propane-1,2-diol]

IC50 (AhR [1]; [4]): 10 to 100 nM
Molecule: O=S(=O)(CCO)N1CCN(c2cc(-c3ccc(C(F)(F)F)cc3)nc(-c3cnsc3)n2)CC1 [Example 370, 2-((4-(2-(isothiazol-4-yl)-6-(4-(trifluoromethyl)phenyl)pyrimidin-4-yl)piperazin-1-yl)sulfonyl)ethanol]

IC50 (AhR [1]; [4]): 100 to 1000 nM
Molecule: OCC[C@H]1CN(c2cc(-c3ccc(Cl)cc3)nc(-c3cccnc3)n2)CCN1 [Example 371, (S)-2-(4-(6-(4-chlorophenyl)-2-(pyridin-3-yl)pyrimidin-4-yl)piperazin-2-yl)ethanol]

IC50 (AhR [1]; [4]): 100 to 1000 nM
Molecule: O=C1COCCN1c1ccc(-c2cc(N3CC[C@H](O)C3)nc(-c3cccnc3)n2)cn1 [Example 372, (S)-4-(5-(6-(3-hydroxypyrrolidin-1-yl)-2-(pyridin-3-yl)pyrimidin-4-yl)pyridin-2-yl)morpholin-3-one]

IC50 (AhR [1]; [4]): 10 to 100 nM
Molecule: Oc1ncccc1-c1nc(-c2ccc(N3CCOCC3)c(F)c2)cc(N2CC[C@H](O)C2)n1 [Example 373, (S)-3-(4-(3-fluoro-4-morpholinophenyl)-6-(3-hydroxypyrrolidin-1-yl)pyrimidin-2-yl)pyridin-2-ol]

IC50 (AhR [1]; [4]): > 1000 nM
Molecule: CN(C)CCNc1ccc(-c2cc(N3CC[C@H](O)C3)nc(-c3cccnc3)n2)cc1 [Example 374, (S)-1-(6-(4-((2-(dimethylamino)ethyl)amino)phenyl)-2-(pyridin-3-yl)pyrimidin-4-yl)pyrrolidin-3-ol]

IC50 (AhR [1]; [4]): > 1000 nM
Molecule: CN(C)CCOc1ccc(-c2cc(N3CC[C@H](O)C3)nc(-c3cccnc3)n2)cc1 [Example 375, (S)-1-(6-(4-(2-(dimethylamino)ethoxy)phenyl)-2-(pyridin-3-yl)pyrimidin-4-yl)pyrrolidin-3-ol]

IC50 (AhR [1]; [4]): 100 to 1000 nM
Molecule: OCCNc1ccc(-c2cc(N3CC[C@H](O)C3)nc(-c3cccnc3)n2)cc1 [Example 376, (S)-1-(6-(4-((2-hydroxyethyl)amino)phenyl)-2-(pyridin-3-yl)pyrimidin-4-yl)pyrrolidin-3-ol]

IC50 (AhR [1]; [5]): > 1000 nM
Molecule: (R)-(4-(6-(4-chlorophenyl)-2-(pyridin-3-yl)pyrimidin-4-yl)piperazin-2-yl)methanol [Example 79]

IC50 (AhR [1]; [5]): 10 to 100 nM
Molecule: Cis-4-((6-(4-chlorophenyl)-2-(pyridin-3-yl)pyrimidin-4-yl)amino)cyclohexan-1-ol [Example 216]

Molecule: Cis-(4-((6-(4-chlorophenyl)-2-(pyridin-3-yl)pyrimidin-4-yl)amino)cyclohexyl)methanol [Example 215]
IC50 (AhR [1]; [5]): 10 to 100 nM

IC50 (AhR [1]; [5]): 10 to 100 nM
Molecule: Trans-4-((6-(4-chlorophenyl)-2-(pyridin-3-yl)pyrimidin-4-yl)amino)cyclohexan-1-ol [Example 217]
